In assay [1] the target is Photoreceptor-specific nuclear receptor (Homo sapiens, UniProt Q9Y5X4). The format is functional.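 Note: potency for compounds that break the NR2E3 corepressor complex and count as activators.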
Assay [2] concerns the target Peroxisome proliferator-activated receptor gamma/Nuclear receptor corepressor 2 (Homo sapiens, UniProt P37231+Q9Y618). It is filed as functional.
Assay [3] deals with Ras and Rab interactor 1/Tyrosine-protein kinase ABL1 (Homo sapiens, UniProt P00519+Q13671). It is filed as functional.
Assay [4] deals with Acyl-homoserine lactone acylase PvdQ (Pseudomonas aeruginosa (strain LESB58), UniProt Q9I194). As to the kind of experiment: P. aeruginosa PvdQ acylase inhibitors, dose response, biochemical, fluorescence, plate reader and imaging, cherry-picks (AID 493231).
The target in assay [5] is T1, Heat shock factor protein 1 (Mus musculus, UniProt P38532).
T1 sequence (P38532 whole entry): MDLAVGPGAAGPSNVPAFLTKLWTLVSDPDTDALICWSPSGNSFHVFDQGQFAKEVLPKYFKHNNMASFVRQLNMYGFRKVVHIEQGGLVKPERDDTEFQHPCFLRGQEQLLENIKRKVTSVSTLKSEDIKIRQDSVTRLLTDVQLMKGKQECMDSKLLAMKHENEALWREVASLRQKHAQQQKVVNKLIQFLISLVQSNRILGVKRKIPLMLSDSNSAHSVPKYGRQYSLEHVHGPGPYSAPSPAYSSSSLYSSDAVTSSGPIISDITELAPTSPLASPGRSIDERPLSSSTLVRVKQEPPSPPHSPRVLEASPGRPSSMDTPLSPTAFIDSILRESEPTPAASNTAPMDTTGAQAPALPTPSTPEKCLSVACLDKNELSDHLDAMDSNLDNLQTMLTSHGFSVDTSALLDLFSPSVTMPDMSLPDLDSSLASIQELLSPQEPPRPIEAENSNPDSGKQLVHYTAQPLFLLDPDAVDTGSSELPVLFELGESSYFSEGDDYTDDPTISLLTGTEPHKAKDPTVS
As to the kind of experiment: HSF1 potentiators in luciferase reporter cells, confirmation, cell-based, NIH3T3, luminescence, dose retest (AID 435004).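 Note: stress induced by proteasome inhibitor MG132 added 30 min after compound; luciferase reporter driven by HSF1 response element in NIH3T3 cells; actives raise luminescence as potentiators of the MG132 stress response.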 It is filed as functional. (A reporter such as luciferase makes a cellular process visible.)

Another assay has as its target Genome polyprotein (Hepatitis C virus, UniProt Q2Q167). As to the kind of experiment: HCV core protein dimerization inhibitors, dose response, biochemical, TR-FRET (AID 2159).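 Note: blocks dimerization of HCV core protein measured by TR-FRET between tagged core106 pairs.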 More on the design: species or system Hepacivirus hominis.
The target of assay [6] is Peroxisome proliferator-activated receptor gamma/Nuclear receptor coactivator 1 (Homo sapiens, UniProt P37231). The experiment in a line: TR-FRET dose response biochemical High Throughput Screening assay for agonists of the steroid receptor coactivator 1 (SRC-1) recruitment by the peroxisome proliferator-activated receptor gamma (PPAR gamma): non-selective agonists. [Related pubchem assays (depositor defined):AID1300, AID1808, AID504735, AID631]. It is filed as protein assay. Background: Time-resolved FRET reads energy transfer from a long-lived donor to a nearby acceptor.

In assay [7] the target is Peroxisome proliferator-activated receptor gamma/Nuclear receptor coactivator 3 (Homo sapiens, UniProt P37231). As to the kind of experiment: TR-FRET dose response biochemical High Throughput Screening assay for agonists of the steroid receptor coactivator 3 (SRC-3) recruitment by the peroxisome proliferator-activated receptor gamma (PPAR gamma): non-selective agonists. [Related pubchem assays: 1301 (Confirmation screen.), 1048 (Primary screen.)]. The format is functional.

The target of assay [8] is Peroxisome proliferator-activated receptor gamma/Nuclear receptor coactivator 2 (Homo sapiens, UniProt P37231). The experiment in a line: TR-FRET dose response biochemical High Throughput Screening assay for agonists of the steroid receptor coactivator 2 (SRC-2) recruitment by the peroxisome proliferator-activated receptor gamma (PPAR gamma): non-selective agonists. [Related pubchem assays: 1297, 1032 ]. The format is functional.

The target of a further assay is Major prion protein (Homo sapiens, UniProt P04156). It is filed as functional, cell-based.

Here are results for three molecules from ChEMBL document CHEMBL1201862, “PubChem BioAssay data set” (2004).

Activity calls are given as the source filed them.

The term IC50 denotes the midpoint of a concentration-inhibition curve. As to `Cc1cccc(C)c1NC(=O)CCCCCC1NC(=O)NC1C` (stereo not drawn), the IC50 was 3.85 µM (active) in [1], > 39.8 µM (not active) in assay [2] and 0.106 µM (active) in assay [3].
The term AC50 denotes the midpoint of the concentration-response curve, whichever way the signal moves. Usually EC50 stands for the concentration at which the effect is half-maximal. As for `Cc1cccc(C(C#N)c2ccc(Cl)nn2)c1` (stereo not drawn), the half-maximal activity concentration (AC50) in assay [4] is 2.01 µM (active). For the same molecule, in assay [5], the EC50 was > 260 µM (inactive).
As to `Cc1cc(Br)c2nc3c(c(C(=O)O)c2c1)CCCCC3`, the 50% inhibitory concentration (IC50) against Genome polyprotein was > 49.8 µM (not active); in assay [1], 1.38 µM (active); in assay [2] it was 0.604 µM (active); on Major prion protein, 0.141 µM (active); in the assay “cells”, > 138 µM (inactive). In addition, the EC50 in assay [6] is > 79.4 µM (inactive); in assay [7] it was > 79.4 µM (not active); in [8], 12.8 µM (not active).
